{"source": "patent US7078165B2", "about": "“Method for modulating Nod1 activity, use of a MTP related molecule for modulating Nod1 activity, and therapeutic applications thereof” (Institut Pasteur, priority 2003, dated 2006)", "key": {"Nod2 [1]": {"target": "T1, Nod2 (Homo sapiens, UniProt Q9HC29)", "T1 construct": "expressed in transfected cells", "T1 sequence (Q9HC29 whole entry)": "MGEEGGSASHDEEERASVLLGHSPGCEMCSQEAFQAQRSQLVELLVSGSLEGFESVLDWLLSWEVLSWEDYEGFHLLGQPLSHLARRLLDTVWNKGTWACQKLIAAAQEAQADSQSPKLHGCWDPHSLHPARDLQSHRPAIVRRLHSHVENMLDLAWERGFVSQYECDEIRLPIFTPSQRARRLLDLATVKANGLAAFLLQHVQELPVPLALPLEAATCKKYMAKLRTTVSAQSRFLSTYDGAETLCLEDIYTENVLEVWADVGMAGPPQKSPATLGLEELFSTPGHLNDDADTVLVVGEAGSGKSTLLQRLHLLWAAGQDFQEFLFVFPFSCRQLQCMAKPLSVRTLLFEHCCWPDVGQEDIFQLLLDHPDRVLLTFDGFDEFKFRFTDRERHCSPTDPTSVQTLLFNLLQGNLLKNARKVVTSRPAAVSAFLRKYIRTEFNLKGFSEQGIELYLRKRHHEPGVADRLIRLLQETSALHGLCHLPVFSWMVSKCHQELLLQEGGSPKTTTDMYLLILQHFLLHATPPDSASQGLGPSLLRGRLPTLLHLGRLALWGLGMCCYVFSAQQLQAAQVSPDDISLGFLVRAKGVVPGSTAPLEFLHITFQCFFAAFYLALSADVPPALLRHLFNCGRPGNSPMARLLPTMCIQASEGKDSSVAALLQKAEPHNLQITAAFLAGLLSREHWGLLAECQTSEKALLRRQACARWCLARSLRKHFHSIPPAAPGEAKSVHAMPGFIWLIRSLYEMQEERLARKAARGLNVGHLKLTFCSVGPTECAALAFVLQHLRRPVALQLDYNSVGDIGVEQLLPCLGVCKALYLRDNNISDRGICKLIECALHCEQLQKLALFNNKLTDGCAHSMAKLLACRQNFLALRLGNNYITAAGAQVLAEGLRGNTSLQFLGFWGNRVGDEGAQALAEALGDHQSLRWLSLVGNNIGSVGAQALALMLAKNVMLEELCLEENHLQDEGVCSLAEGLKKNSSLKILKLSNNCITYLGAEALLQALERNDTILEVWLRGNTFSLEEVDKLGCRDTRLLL", "details": "cited from earlier work"}, "Nod2 [2]": {"target": "T1, Nod2", "assay": "Nod2-dependent activation of NF-κB", "format": "cell-based", "details": "10 ng (FIG. 2d)", "description": "(§1) Studies examining the activation of NF-κB by LPS, lipid A, lipoproteins or the purified PGNs in cells over-expressing Nod1 were carried out as described by Inohara et al. (9). Briefly, HEK293 cells were transfected overnight with 10 ng of Nod 1. At the same time, the LPS, lipoproteins or peptidoglycan preparations were added and the NF-κB-dependent luciferase activation was then measured following 24 h of co-incubation.\n(§2) NF-κB-dependent luciferase assays were performed in duplicate and data represent at least 3 independent experiments.\n(§3) In FIG. 2a, PGN muropeptides from N. meningitides were separated by reverse-phase HPLC and subsequently analysed by mass spectroscopy (see supporting on-line text). […] In FIG. 2d, equivalent amounts (10 ng) of GM-dipeptide (GM-di; synthetic source), GM-tripeptide (GMtri), or GM-tetrapeptide (GM-tetra) were tested for stimulation of Nod 1-, Nod2- or TLR2-dependent activation of NF-κB. […] Buff, buffer diluent of the muropeptides."}, "Nod1 [3]": {"target": "T2, Nod1 (Homo sapiens, UniProt Q9Y239)", "T2 sequence (Q9Y239 1-953)": "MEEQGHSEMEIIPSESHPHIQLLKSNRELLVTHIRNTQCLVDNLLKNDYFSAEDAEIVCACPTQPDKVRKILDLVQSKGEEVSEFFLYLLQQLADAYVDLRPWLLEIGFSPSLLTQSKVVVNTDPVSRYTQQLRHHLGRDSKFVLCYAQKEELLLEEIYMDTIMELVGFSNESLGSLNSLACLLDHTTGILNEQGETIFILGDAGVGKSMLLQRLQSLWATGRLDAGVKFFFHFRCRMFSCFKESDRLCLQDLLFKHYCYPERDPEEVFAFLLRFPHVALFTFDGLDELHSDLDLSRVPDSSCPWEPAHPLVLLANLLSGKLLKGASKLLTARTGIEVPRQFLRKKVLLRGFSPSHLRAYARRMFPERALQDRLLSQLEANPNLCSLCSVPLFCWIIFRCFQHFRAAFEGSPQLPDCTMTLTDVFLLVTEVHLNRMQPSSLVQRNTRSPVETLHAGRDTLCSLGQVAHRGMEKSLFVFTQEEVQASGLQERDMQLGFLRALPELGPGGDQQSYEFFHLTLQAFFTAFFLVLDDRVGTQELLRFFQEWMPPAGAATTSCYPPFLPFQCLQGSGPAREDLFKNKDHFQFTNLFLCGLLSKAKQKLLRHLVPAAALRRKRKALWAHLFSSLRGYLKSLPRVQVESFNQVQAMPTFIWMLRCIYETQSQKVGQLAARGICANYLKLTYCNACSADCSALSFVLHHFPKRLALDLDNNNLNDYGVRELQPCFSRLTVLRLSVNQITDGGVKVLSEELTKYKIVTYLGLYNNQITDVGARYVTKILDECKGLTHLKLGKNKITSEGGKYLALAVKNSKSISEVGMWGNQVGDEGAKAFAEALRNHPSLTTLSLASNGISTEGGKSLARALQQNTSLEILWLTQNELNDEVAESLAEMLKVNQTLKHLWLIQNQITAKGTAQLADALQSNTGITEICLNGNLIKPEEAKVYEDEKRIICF", "assay": "Nod1-dependent NF-κB luciferase activation in Nod1-overexpressing HEK293 cells", "format": "cell-based", "design": "expressed in transfected cells; host or cells: HEK293", "details": "for detection by Nod1: FIG. 8B-8D, additional experiments; for Nod1-dependent activation of NF-κB by muropeptides: 10 ng (FIG. 2d); for stimulation of the Nod1 pathway by HPLC fractions of N. meningitidis PGN muropeptides: 1% of the volume of each HPLC fraction (FIG. 2b); for stimulation of the Nod1 pathway (NF-κB activation): LPS, lipid A, lipoproteins preparations at 10 μg/ml (FIG. 1a, 1b)", "description": "as §1, §2"}, "Nod1 [4]": {"target": "T2, Nod1", "assay": "Nod1-dependent IL-8 production in HeLa epithelial cells (ELISA)", "format": "cell-based", "design": "expressed in transfected cells", "details": "HeLa cells transfected with 10 ng Nod1; 18 h; IL-1 at 10 ng/ml (FIG. 2f)", "description": "To measure Nod1-dependent IL-8 produced in epithelial cells by muropeptides, 5×10^5HeLa cells were seeded into each well of a twelve well plate and transfected the following day with 10 ng Nod1 plus the individual muropeptides (as described above) or treated with IL-1 as a positive control. Eighteen hours later, supernatants were collected and assayed for IL-8 as previously described (10) using an ELISA kit (R and D Systems).\nas §3"}, "[5]": {"tested_on": "NF-κB p65 in intestinal epithelial cells from Nod1-deficient mice", "assay": "NF-κB p65 nuclear translocation in intestinal epithelial cells from Nod1-deficient mice", "format": "cell-based", "details": "microinjection of supernatants; TNFα 10 ng/ml"}, "macrophages": {"tested_on": "macrophages", "assay": "Activation of macrophages", "format": "cell-based"}}}
{"molecule": "CC(=O)N[C@H]1C(O)O[C@H](CO)[C@@H](O)[C@@H]1O[C@H](C)C(=O)N[C@@H](C)C(=O)N[C@H](CCC(=O)O)C(N)=O", "note": "(mixture of isomers) [M-dipeptide, muramyl dipeptide]", "values": [{"measurement": "recognition by Nod2 (previous findings)", "setting": "Nod2 [1]", "result": "recognizes"}]}
{"molecule": "CC(=O)N[C@H]1[C@H](O[C@H]2[C@H](O[C@H](C)C(=O)N[C@@H](C)C(=O)N[C@H](CCC(=O)O)C(N)=O)[C@@H](NC(C)=O)C(O)O[C@@H]2CO)O[C@H](CO)[C@@H](O)[C@@H]1O", "note": "(stereo partly drawn) [GM-dipeptide]", "values": [{"measurement": "Nod2-dependent activation of NF-κB by muropeptides", "setting": "Nod2 [2]", "result": "detects"}]}
{"molecule": "CC(=O)NC1C(O)OC(CO)C(O)C1OC(C)C(=O)NC(C)C(=O)NC(CCC(=O)NC(CCCC(N)C(=O)O)C(=O)O)C(=O)O", "note": "(stereo not drawn) [MurTriDAP]", "values": [{"measurement": "detection by Nod1", "setting": "Nod1 [3]", "result": "detects"}]}
{"molecule": "CC(=O)N[C@H]1[C@@H](OP(=O)(O)OP(=O)(O)OC[C@H]2O[C@@H](n3ccc(=O)[nH]c3=O)[C@H](O)[C@@H]2O)O[C@H](CO)[C@@H](O)[C@@H]1O[C@H](C)C(=O)N[C@@H](C)C(=O)N[C@H](CCC(=O)N[C@@H](CCC[C@@H](N)C(=O)O)C(=O)O)C(=O)O", "note": "[UDP-MurTriDAP]", "values": [{"measurement": "detection by Nod1", "setting": "Nod1 [3]", "result": "detects"}]}
{"molecule": "C[C@H](N)C(=O)N[C@H](CCC(=O)NC(CCCC(N)C(=O)O)C(=O)O)C(=O)O", "note": "(stereo partly drawn) [tripeptide L-Ala-D-Glu-mesoDAP, L-Ala-D-Glu-mesoDAP]", "values": [{"measurement": "detection by Nod1", "setting": "Nod1 [3]", "result": "able to sense"}, {"measurement": "detection by Nod1", "setting": "Nod1 [3]; listed as TriDAP", "result": "detects"}]}
{"molecule": "GlcNAc-MurNAc-L-Ala-D-Glu-mesoDAP [GM-tripeptide]", "values": [{"measurement": "Nod1-dependent activation of NF-κB by muropeptides", "setting": "Nod1 [3]", "result": "specifically detects"}, {"measurement": "stimulation of the Nod1 pathway by HPLC fractions of N. meningitidis PGN muropeptides", "setting": "Nod1 [3]", "result": "activates Nod1"}, {"measurement": "detection by Nod1", "setting": "Nod1 [3]", "result": "detects"}, {"measurement": "production of IL-8", "setting": "Nod1 [4]", "result": "production of the pro-inflammatory chemokine, IL-8"}]}
{"molecule": "GlcNAc-MurNAc-L-Ala-D-Glu-mesoDAP(GlcNAc-MurNAc-L-Ala-D-Glu-mesoDAP-D-Ala)-D-Ala [dimeric GM-tetrapeptide, reference compound]", "values": [{"measurement": "stimulation of the Nod1 pathway by HPLC fractions of N. meningitidis PGN muropeptides", "setting": "Nod1 [3]", "result": "does not activate Nod1"}]}
{"molecule": "GlcNAc-MurNAc-L-Ala-D-Glu-mesoDAP-DAla [GM-tetrapeptide]", "values": [{"measurement": "Nod1-dependent activation of NF-κB by muropeptides", "setting": "Nod1 [3]", "result": "not sensed"}]}
{"molecule": "GlcNAc-anhydro-MurNAc-L-Ala-D-GlumesoDAP [anhydrous GM-tripeptide]", "values": [{"measurement": "stimulation of the Nod1 pathway by HPLC fractions of N. meningitidis PGN muropeptides", "setting": "Nod1 [3]", "result": "activates Nod1"}]}
{"molecule": "Lpp: the most abundant lipoprotein in E. coli (lipidated)", "values": [{"measurement": "stimulation of the Nod1 pathway (NF-κB activation)", "setting": "Nod1 [3]", "result": "not possible to stimulate the Nod1 pathway"}]}
{"molecule": "Pam3Cys-Ser-Lys4-OH [synthetic lipopeptide, reference compound]", "values": [{"measurement": "stimulation of the Nod1 pathway (NF-κB activation)", "setting": "Nod1 [3]", "result": "not possible to stimulate the Nod1 pathway"}]}
{"molecule": "TNFα", "values": [{"measurement": "NF-κB nuclear translocation in Nod1-deficient cells", "setting": "[5]", "result": "can efficiently stimulate NF-κB nuclear translocation"}]}
{"molecule": "lipid A [reference compound]", "values": [{"measurement": "activation of macrophages", "setting": "macrophages", "result": "could efficiently activate macrophages"}, {"measurement": "stimulation of the Nod1 pathway (NF-κB activation)", "setting": "Nod1 [3]", "result": "could not stimulate the Nod1 pathway"}]}
